Data set [1] has as its system SUM1315 triple negative breast cancer cell derived tumors. Put plainly: Orthotopic tumor growth assay. It is filed as in vivo, mice. The following applies: SUM1315 xenografts, intraperitoneal injection at 5 mg/kg. The protocol: MDA-MB-468 or SUM1315 triple negative breast cancer cells (1×10^6 cells suspended in 0.1 ml Matrigel) were injected subcutaneously into the fatpads of fourth and fifth inguinal mammary glands of female nude mice. […] Control vehicle or SMI #9 free drug was administered intratumorally whereas blank-GNP and SMI #9-GNP were administered intraperitoneally. Treatments were given every fourth day. Tumor volumes and body weights were measured twice a week and mice were monitored for weight loss, gastrointestinal distress, activity, body posture, and food/water intake. Mice were sacrificed at 35-44 days postimplantation. Tumors were harvested and weighed.

For the next data set, the system named is MDA-MB-231 TNBC cells. Put plainly: Cell survival assay (MTT or trypan blue). As to conditions: Homo sapiens; MDA-MB-231 cells, 72 hours; for SMI #9-GNP based on the concentration of SMI #9. The protocol:
(§1) MDA-MB-231, SUM-1315, MDA-MB-468, and HCC1937 TNBC cells (ATCC) were maintained in Dulbecco's Modified Eagle's Medium (DMEM)/F-12 supplemented with 5% fetal bovine serum. Nontransformed MCF10A human breast cells were maintained in DMEM/F12 supplemented with 5% horse serum, 20 ng/ml epidermal growth factor, 10 μg/ml insulin, 0.5 μg/ml hydrocortisone and 0.10 μg/ml cholera toxin. Sensitivity to SMI #9-GNP was assessed by trypan blue staining or MTT colorimetric assay. Briefly, cells were seeded in 96-well plates at a density of 5-7×10^3 cells per well and allowed to attach overnight. Cells were treated with free SMI #9, SMI #9-GNP, or blank-GNP at various concentrations in triplicates for 72 hours. In some cases, treatments included various doses of cisplatin singly or in combination with SMI #9-GNP. On the final day, medium was replaced with drug free medium, incubated with MTT at 37° C. for 2-3 hours. The medium and MTT were removed, and the MTT-formazan crystals dissolved in 200 μl of 0.04 N HCl/isopropanol, and absorbance measured at 570 nm using the Synergy 2 multi-well plate reader. Alternately, cultures were trypsinized and cell viability determined by trypan blue exclusion using the Biorad TC10 automatic cell counter. At least two to three independent experiments were performed for each cell line.

A further data set relates to SUM1315 TNBC cells. Put plainly: Cell survival assay (MTT or trypan blue). The following applies: 72 hours, for SMI #9-GNP based on the concentration of SMI #9. The protocol:
as §1

For data set [2], the system named is MDA-MB-468 or SUM1315 triple negative breast cancer cell derived tumors. Put plainly: Orthotopic tumor growth assay, tumor line not given. Format: in vivo. The following applies: female nude mice, 1.5 mg/kg intratumorally every fourth day. The protocol: MDA-MB-468 or SUM1315 triple negative breast cancer cells (1×10^6 cells suspended in 0.1 ml Matrigel) were injected subcutaneously into the fatpads of fourth and fifth inguinal mammary glands of female nude mice. Mice were randomized and treatments with SMI #9-GNP (0.285 mg/kg body wt), SMI #9 free drug (1.5 mg/kg body wt.), blank-GNP (volumes equivalent to SMI #9-GNP), or vehicle control were initiated upon detection of palpable lesions. Control vehicle or SMI #9 free drug was administered intratumorally whereas blank-GNP and SMI #9-GNP were administered intraperitoneally. Treatments were given every fourth day. Tumor volumes and body weights were measured twice a week and mice were monitored for weight loss, gastrointestinal distress, activity, body posture, and food/water intake. Mice were sacrificed at 35-44 days postimplantation. Tumors were harvested and weighed.

The subject of another data set is HCC1937 cells. Description: Mitochondrial membrane potential, JC-1 assay. Format: cell-based. As to conditions: overnight, 1 μM. The protocol:
(§2) The impact of free SMI #9 or SMI #9-GNP on mitochondrial membrane potential (Δψm) on SUM1315 and HCC1937 TNBC cells was assessed using JC-1 (Mitocapture, Biovision, Mountainview, Calif.), a potentiometric green fluorescent dye that shifts to red fluorescence within mitochondria with a normal negative […]. Briefly, cells were incubated with the MitoCapture reagent for 15 min at 37° C. and imaged by fluorescence microscopy as described in Shekhar M P et al., Cancer Biol Ther 2008; 7:1774-82.
(§3) The percent of cells showing punctate red fluorescence or diffuse green fluorescence were scored by counting three-five fields of 50-100 cells in each field. Each experiment was repeated at least three times and results expressed as mean±S.E. Statistical significance of differences was determined by Student's t test.

For a further data set, the system named is SUM1315 cells. Description: Mitochondrial membrane potential, JC-1 assay. Format: cell-based. As for the experimental part: as §2, §3
For data set [3], the system named is LC3-I/LC3-II in SUM1315 cells. Put plainly: Western blot of LC3-I/II. Format: cell-based. As to conditions: 24 h. The protocol: (§4) Breast cancer cells treated with vehicle, free SMI #9, blank- or SMI #9-GNP (1-5 μM) for 24-96 hours were lysed, and aliquots of lysates containing 25 μg of protein were subjected to SDS-PAGE and western blot analysis of PARP-1 (Cell Signaling), Rad6, LC3-I/II (Cell Signaling), and […] (Sigma). To determine LC3 subcellular localization, control or SMI #9-GNP treated cells were fixed with methanol:acetone (1:1, v/v) and stained with anti-LC3 antibody. Slides were incubated with FITC-conjugated secondary antibody, counterstained with DAPI and analyzed by fluorescence microscopy.
Background: A western blot detects proteins with antibodies after separation by electrophoresis.

Data set [4] concerns LC3-I/LC3-II in MDA-MB-231 cells. Description: Western blot of LC3-I/II. As to conditions: 24 hours. Format: cell-based. The protocol:
as §4

The test system of data set [5] is nontransformed MCF10A human breast cells. Description: Cell survival assay (MTT or trypan blue). Format: cell-based. As to conditions: 72 hours. As for the experimental part: as §1
The test system of a further data set is MDA-MB-468 TNBC cells. Description: Cell survival assay (MTT or trypan blue). Format: cell-based. The following applies: Homo sapiens; MDA-MB-468 cells, 72 hours. As for the experimental part:
as §1

In a further data set the test system is HCC1937 TNBC cells. Put plainly: Cell survival assay (MTT or trypan blue). It is filed as cell-based. As to conditions: Homo sapiens, 72 hours. The protocol:
as §1

A short description of the next data set: in vivo. As to conditions: mouse, iv, 5 mg/kg. Also noted: species or system mice. The protocol: To determine release of conjugated drugs and metabolic stability of GNP conjugates, mice were given a single i.v. injection of SMI #9-GNP at 5 mg/kg body wt. Blood samples were collected at 0, 5 min, 15 min, 30 min, 1 h, 2 h, 4 h, 8 h, and 24 h post-injection. Similarly, to assess the stability of SMI #9 as a free drug, a single i.v. injection of SMI #9 at 5 mg/kg was injected and blood samples collected. Concentrations of SMI #9 in plasma were determined by tandem LC-MS/MS and non-compartmental analysis with WinNonlin v5.2 (Pharsight).

The test system of a further data set is PARP-1 in TNBC cells. Put plainly: Western blot of PARP-1 steady-state levels. Format: cell-based. As to conditions: TNBC cell lines, 24 hours. As for the experimental part: as §4

The GI50 is the concentration at which growth is held to half of that of the control. The term Cmax denotes the peak of the concentration-time curve. Broadly, the Tmax is the time at which the peak concentration occurs. As to `Nc1nc(COC(=O)c2ccc([N+](=O)[O-])cc2)nc(Nc2ccccc2)n1` [SMI #9], the tumor growth result in data set [1] is reported as “no significant change in tumor growth”; in [2], “tumor growth inhibition compared to controls”. Also, the GI50 in the data set with MDA-MB-231 TNBC cells came out at 5 µM; in the data set on SUM1315 TNBC cells it was 6 µM; in the data set with MDA-MB-468 TNBC cells, 3 µM; in the data set on HCC1937 TNBC cells it was 1.8 µM. Besides, the “JC-1 punctate red fluorescence” value is “reduced the punctate red fluorescence staining” in the data set on HCC1937 cells and “reduced the punctate red fluorescence staining” with SUM1315 cells (overnight, 1 μM). Besides, the mitochondrial integrities result in the data set with SUM1315 cells was “similarly and dramatically compromised”. The “changes in LC3-I processing” value in [3] is “not readily apparent”. In addition, in data set [4], the “LC3-I and LC3-II levels” value was “downregulated both LC3-I and LC3-II”. Further, the “sensitivity (growth inhibition)” value in data set [5] was “unaffected”. The same compound returned a peak concentration (Cmax) in the data set “in vivo” of 409 nM. Moreover, the Tmax in the data set “in vivo” was roughly 5 min. Further, the “PARP-1 processing / steady-state levels” value with PARP-1 in TNBC cells is on record as “stabilization/hyperactivation of PARP-1”.

The record behind these values is patent publication US10588985B2, “Compositions and methods relating to RAD6 inhibition” (Wayne State University, priority 2015, dated 2020).
